In US6677488B2, “Substituted biphenyl compounds for the treatment of inflammation” (G.D. Searle & Co., priority 1995, dated 2004) one finds melting point data, which are given here for four compounds.

Molecules are shown by their SMILES. Bounds are passed on as bounds.

The melting point is the temperature, or range, at which the solid turns liquid. For the compound `NS(=O)(=O)c1ccc(-c2cc(F)c(F)cc2-c2ccc3c(c2)OCCO3)cc1` [Example 43, 4-[2-(2,3-Dihydro-1,4-benzodioxin-6-yl)-4,5-difluorophenyl]benzenesulfonamide], the melting point fell in the range of 107 to 108 °C.
For `CS(=O)(=O)c1ccc(-c2cc(Cl)c(Cl)cc2-c2ccc(F)cc2)cc1` [Example 44, 1,2-Dichloro-4-(4-fluorophenyl)-5-[4-(methylsulfonyl)phenyl]benzene], the melting point fell in the range of 143.5 to 144.5 °C.
Take `Cc1ccc(-c2cc(F)c(F)cc2-c2ccc(S(C)(=O)=O)cc2)cn1` [Example 47, 5-[4,5-Difluoro-4′-(methylsulfonyl)-(1,1′-biphenyl)-2-yl]-2-methylpyridine]: the melting point is 141 to 142.5 °C.
Regarding `Cc1ccc(-c2cc(F)c(F)cc2-c2ccc(S(N)(=O)=O)cc2)cn1` [Example 48, 4-[4,5-Difluoro-2-(6-methylpyridin-3-yl)phenyl]benzenesulfonamide], the melting point was > 96 °C (dec.).
